Active and inactive are the calls of the source. The rule behind the calls is not given here.
Target: Tubulin (Homo sapiens) (UniProt P68371+Q9H4B7+P0DPH7+P68366+Q13509+Q71U36+P04350+Q3ZCM7+P07437+P68363+Q9BQE3+Q6PEY2+Q13885+Q9BVA1+Q9BUF5)
Experiment: Inhibition of tubulin (unknown origin) assessed as inhibition of tubulin polymerization at 10 uM measured for 50 mins by fluorescence based analysis
Format: protein-complex assay

inhibition	Structure (SMILES)
Active	C1=C2CCC3=Cc4c(ccc5ccccc45)OC23Oc2ccc3ccccc3c21
Active	C1=C2COCC3=Cc4c(ccc5ccccc45)OC23Oc2ccc3ccccc3c21
Active	CC[C@]1(O)C[C@@H]2CN(CCc3c([nH]c4ccccc34)[C@@](C(=O)OC)(c3cc4c(cc3OC)N(C)[C@H]3[C@@](O)(C(=O)OC)[C@H](OC(C)=O)[C@]5(CC)C=CCN6CC[C@]43[C@@H]65)C2)C1

— ChEMBL document CHEMBL4680293, “Tubulin inhibitory activity of a novel colchicine-binding compounds based on a dinaphthospiropyranran scaffold” (Bioorg Med Chem, 2021)
